{"source": "patent US20210051954A1", "about": "“METHOD FOR INCREASING THE RESISTANCE OF A CEREAL PLANT” (BASF AGROCHEMICAL PRODUCTS B.V., priority 2018, published 2021)", "key": {"Maize (Corn)": {"system": "Maize (Corn)", "test": "% germination in maize (corn) by drench treatment, 21 days after planting", "format": "in vivo", "conditions": "30% FS formulation; for % Germination in Mineral soil in Standard conditions: standard watered conditions (moisture above 80%); for % Germination in Organic soil in Draught conditions: drought conditions (re-watering at 45% pot moisture)", "excerpt": "(§1) Watering cycles—The level of stress is created by watering the pots based on the % of pot moisture as measured by wireless probes. Depending on weather conditions the number of cycles vary as needed.\n(§2) The % of moisture triggers the watering process independent of the time that it takes to reach this point.\n(§3) In “well-watered conditions” or “standard watered conditions”, in pots the % moisture is kept above 80%.\n(§4) In “drought conditions”, in the pots re-watering happens at 45% pot moisture.\n(§5) “Untreated” means that the seed has not been exposed to the compound I (a).\n(§6) The treaments(s) were applied directly over the planted seed at the rates found in the table(s) below. Seeds were then covered and the % rate of germination was calculated at 21 days after planting.\n(§7) The % rate of germination was calculated as the number of seeds that emerged divided by the number of seeds planted and presented as as a percentage.\n(§8) Seeds were planted in two types of soil (Mineral and Organic) which were free of pest (insects, weeds, or diseases) to avoid interactions with the treatments applied\nExample 1: Increase in % of Germination in Maize (Corn) by Drench Treatment"}, "Wheat": {"system": "Wheat", "test": "% germination in wheat by seed treatment, 21 days after planting", "format": "in vivo", "conditions": "0.5 mg of (la)/plant, 30% FS formulation", "excerpt": "as §1, §2, §3, §4, §5, §6, §7, §8\nExample 2: Increase % Germination in Wheat by Seed Treatement"}}, "data": [{"smiles": "CN(C(=O)c1ccccc1)c1cccc(C(=O)Nc2c(Br)cc(C(F)(C(F)(F)F)C(F)(F)F)cc2C(F)(F)F)c1F", "note": "[(la)]", "values": [{"measurement": "% Germination in Mineral soil in Standard conditions", "setting": "Maize (Corn); 0.5 mg of (la)/plant", "value": 100, "unit": "%"}, {"measurement": "% Germination in Organic soil in Draught conditions", "setting": "Maize (Corn); 0.5 mg of (la)/plant", "value": 98, "unit": "%"}, {"measurement": "% Germination in Mineral soil in Standard conditions", "setting": "Maize (Corn); 1 mg of (la)/plant", "value": 100, "unit": "%"}, {"measurement": "% Germination in Organic soil in Draught conditions", "setting": "Maize (Corn); 1 mg of (la)/plant", "value": 100, "unit": "%"}, {"measurement": "% Germination in Mineral soil in Standard conditions", "setting": "Wheat; mineral soil, standard watered conditions (moisture above 80%)", "value": 95, "unit": "%"}, {"measurement": "% Germination in Organic soil in Draught conditions", "setting": "Wheat; organic soil, drought conditions (re-watering at 45% pot moisture)", "value": 95, "unit": "%"}, {"measurement": "% Germination in Organic soil in Standard conditions", "setting": "Wheat; organic soil, standard watered conditions (moisture above 80%)", "value": 100, "unit": "%"}]}]}
